{
  "source": "patent US20030036513A1",
  "about": "“Method for treating cancer” (priority 1999, published 2003)",
  "key": {"[1]": {"test_system": "cells", "assay": "Chemosensitizing of an anti-cancer agent by a co-administered redox clamping agent (FIG. 2)", "type": "cell-based", "description": "The present invention further provides a method of reducing the effective dose of an anti-cancer agent necessary to be effective against cancer comprising administering a redox clamping agent in conjunction with an anti-cancer agent. It is preferred that the redox clamping agent is Mesna or DMSA. Redox clamping agents have the ability to maintain cells in a selected redox state. […] Redox clamping agents are useful in enhancing the therapeutic activity of chemotherapeutic agents such as butyrate that are dependent upon the redox state of the cell. Redox clamping agents are further useful in controlling hyperproliferation of cells and conditions associated with abnormal fluctuations in the redox state of cells. In one aspect, this invention provides a method of treating cancerous tumors comprising administering an effective dose of an anti-cancer agent in conjunction with a redox clamping agent, wherein the redox clamping agent acts as a chemoenhancer or a chemosensitizer. […] The administration of Mesna in conjunction with an anti-cancer agent may be as separate compounds or in a composition formulated and titrated to a dose and in a concentration that would achieve the optimal therapeutic dose of the anti-cancer agent providing a higher tumor cell kill with a lower dose of the anti-cancer agent than the typical therapeutic dose administered to a patient. […]"}, "[2]": {"test_system": "H4 Rat Hepatoma cells", "assay": "Stress-induced antioxidant upswing in H4 Rat Hepatoma cells after hydrogen peroxide", "type": "cell-based", "conditions": "100 uM hydrogen peroxide for two hours, medium replaced; determined after 24 hours in culture", "method": "To further exemplify the redox clamping properties of Mesna, stress was induced in H4 Rat Hepatoma cells by treatment with 100 uM hydrogen peroxide for two hours and then the medium was removed and replaced with an anti-cancer agent. The cellular viability, as well as glutathione and metallothionein levels were determined after 24 hours in culture. […] The inhibition of stress induced upswing in antioxidant levels is characteristic of redox clamping agents.\nIn all of the experiments associated with the investigation of Mesna as a redox clamping agent, as a stand-alone anticancer agent as well as a chemosensitizer, the cell culture medium used was Swim's S-77 medium containing 12 uM cystine, instead of conventional levels of this amino acid (i.e., 50 uM). All other components of the medium were maintained at conventional concentrations. […] The ability of cystine to supply cells with cysteine, which then function as a precursor amino acid for glutathione synthesis, is thought to be responsible for the abnormally high basal levels of glutathione in cultured tumor cell lines."}, "[3]": {"test_system": "human tumor cell lines", "assay": "Growth inhibition of human tumor cell lines in culture", "type": "cell-based", "description": "The present invention provides a method of treating lymphoma, ovarian cancer, colorectal cancer, or gastric cancer comprising administering an effective amount of Mesna to a patient with lymphoma, ovarian cancer, colorectal cancer or gastric cancer. Mesna inhibits the growth of several human tumor cell lines in culture, and there are no strict relationships between the histopathological origin of the cell lines and the sensitivity of the cell lines to Mesna. […] It is further preferred that the patient be administered Mesna for a seven to ten day period. The doses may be cycled. The actual dose will be dependent on the size, type and location of the tumor as well as the overall status of the patient. It is preferred that high concentrations of Mesna be administered intravenously to achieve clamping initially, with further administration of oral doses to maintain the clamped state. […] Cancer cell lines were growth inhibited when Mesna was administered on several consecutive days. Mesna has shown good activity in preventing the urotoxicity of oxazaphosphorine compound.\n(§1) In all of the experiments associated with the investigation of Mesna as a redox clamping agent, as a stand-alone anticancer agent as well as a chemosensitizer, the cell culture medium used was Swim's S-77 medium containing 12 uM cystine, instead of conventional levels of this amino acid (i.e., 50 uM). […]"}, "[4]": {"test_system": "Human LNCaP cells", "assay": "Two-step arsenic then Mesna treatment of human LNCaP cells: apoptosis and glutathione levels (FIG. 1)", "type": "cell-based", "method": "In one aspect, the present invention further provides a method of using a redox clamping agent as a chemosensitizer comprising contacting tumor cells with a specific class of cytotoxic agent for a period of time, preferably between 2 and 4 hours, and then washing the agent from the cells and administering the redox clamping agent. It is preferred that the redox clamping agent is Mesna. The cytotoxic or anti-cancer agents used in this design would be those such as arsenic, hydrogen peroxide and other anti-cancer agents that are known to induce a cytotoxic effect by interacting with, depleting or sequestering cellular thiols. During the two to four hour treatment these anti-cancer agents deplete cellular thiols and induce apoptotic mechanisms in the cells. However, the stress-response that is induced in the cells by these anti-cancer agents also up-regulates the production of antioxidants such as glutathione and metallothionein. These antioxidants function as potent inhibitors of apoptosis. If redox clamping agents are added after the apoptotic mechanisms are initiated, but prior to the antioxidant rebound, the redox clamping agents will function in two ways to enhance the cytotoxic effects of the anti-cancer agents. It is preferred that the redox clamping agent be Mesna, which is a thiol with low reducing potential. First, the redox clamping agents will permit the progression of apoptotic signals and the mechanisms required to mediate cell death. Secondly, the redox clamping agents will promote the apoptotic response by dramatically attenuating the antioxidant “rebound” that is associated in the inhibition of apoptosis. Redox clamping agents chemically interact with the anti-cancer agent or oppose aspects of the early stress-response that is induced by pure oxidants. Therefore, a two-step treatment protocol is required.\nHuman LNCaP cells, treated with 100 uM arsenic for 2 hours then washed and re-fed with normal medium, develop an elevation in cellular glutathione levels over a 24-hour period. Since exogenous antioxidants are known to be potent inhibitors of apoptotic mechanism, it is believed that internally-produced antioxidants such as glutathione function in a similar manner. […] Although Mesna increases apoptosis alone, the low concentrations of Mesna utilized in this two-step treatment protocol increased apoptosis minimally i.e., to 11 percent from a background of 3 to 5 percent in untreated cells.\nas §1"}, "[5]": {"conditions": "even in very high dose, i.e. 1000 mg/kg; cited from earlier work"}, "[6]": {"conditions": "within a few minutes after administration; cited from earlier work"}, "[7]": {"test_system": "metastatic and/or relapsed tumors refractory to conventional therapy", "assay": "Clinical study of oral Mesna as single agent in 14 patients with metastatic and/or relapsed tumors refractory to conventional therapy", "type": "in vivo, human", "method": "From December 1996 to March 1998 a study was performed on 14 ambulatory patients with metastatic and/or relapsed tumors refractory to conventional therapy. Eligibility criteria included histologically-confirmed advanced cancer, patients age was greater than 18 years, with a life expectancy no less than two months. The patients had not undergone major surgery within 2 weeks, or radiotherapy and/or chemotherapy within one month of the study. […] Exclusion criteria included active uncontrolled infection, pregnancy, lactation and any other co-existing medical problems severe enough to prevent full compliance with the study. Objectively measurable disease in the patients was required. All patients gave informed written consent before treatment. 600 mg/m^2 of Mesna was given by oral route four times a day, masked in orange juice for 10 consecutive days. Cycles were repeated every 15 days. No simultaneous chemotherapy and or radiotherapy and no other supportive care was given. The main objective of the study was to determine the anti-tumoral activity and toxicity of Mesna for heavily and or refractory pretreated cancer patients. […] The patients were all previously treated with between two and four different chemotherapy regimens. Mesna was administered as a single agent to all of the patients in the study. The toxic effects of Mesna and number of nodes were assessed during the first cycle of Mesna administration. […] For colorectal cancer a greater than 50% reduction of nodular lesions metastasized to liver was registered, during the second schedule of therapy. For gastric cancer a greater than 50% reduction of a subcutaneous nodule was measured during the second course of Mesna treatment."}, "[8]": {"conditions": "arsenic treated cells washed and incubated in medium containing 100 uM Mesna"}},
  "data": [
    {"smiles": "CCCC(=O)O", "note": "[Butyrate]", "values": [
      {"measurement": "concentration at which apoptosis is induced", "setting": "[1]; butyrate alone", "value": "greater than 3 mM"},
      {"measurement": "concentration giving an effective kill", "setting": "[1]; in the presence of a redox clamping agent", "value": "≥ 0.5", "unit": "mM"}
    ]},
    {"smiles": "O=C(O)[C@@H](S)[C@@H](S)C(=O)O", "note": "[DMSA]", "values": [
      {"measurement": "effect on stress-induced upswings in antioxidant levels (glutathione, metallothionein)", "setting": "[2]", "value": "oppose stress-induced upswings in antioxidant levels"}
    ]},
    {"smiles": "O=S(=O)([O-])CCS.[Na+]", "note": "[Mesna, Sodium-2-mercaptoethane sulphonate]", "values": [
      {"measurement": "incorporation of 3H-thymidine, proline and uridine", "setting": "[3]", "value": "inhibited incorporation"},
      {"measurement": "growth of human tumor cell lines in culture", "setting": "[3]; lymphoma, ovarian cancer, colorectal cancer, gastric cancer lines, drug administered on several consecutive days", "value": "inhibits growth of several human tumor cell lines"},
      {"measurement": "effect on stress-induced upswings in antioxidant levels (glutathione, metallothionein)", "setting": "[2]", "value": "oppose stress-induced upswings in antioxidant levels"},
      {"measurement": "elevation in glutathione levels", "setting": "[4]; [8]", "value": "dramatically diminished"},
      {"measurement": "fraction of apoptotic cells compared to arsenic alone", "setting": "[4]; [8]", "value": "increased more than two-fold"},
      {"measurement": "apoptosis with Mesna alone", "setting": "[4]; low concentration of Mesna as used in the two-step protocol, background 3 to 5 percent in untreated cells", "value": 11, "unit": "%"},
      {"measurement": "pharmacological and toxicological behaviour", "setting": "[5]", "value": "relatively inert substance"},
      {"measurement": "administered dose transformed into Mesna disulphide", "setting": "[6]", "value": "more than 90%"},
      {"measurement": "reduction of nodular lesions metastasized to liver", "setting": "[7]; colorectal cancer patient, 600 mg/m^2 oral four times a day, second schedule of therapy", "value": "greater than 50%"},
      {"measurement": "reduction of a subcutaneous nodule", "setting": "[7]; gastric cancer patient, 600 mg/m^2 oral four times a day, second course of treatment", "value": "greater than 50%"},
      {"measurement": "objective responses", "setting": "[7]; patients with lung cancer, soft tissue sarcoma, skin metastases of unknown origin, bladder cancer, melanoma and cancer of the cervix", "value": "No objective responses were achieved"},
      {"measurement": "clinical response in ovarian cancer patients", "setting": "[7]; two patients, 600 mg/m^2 oral four times a day for 10 days, cycles every 15 days, second and third course respectively", "value": "reduced ascites and pain"}
    ]},
    {"smiles": "[AsH3]", "note": "[arsenic]", "values": [
      {"measurement": "apoptosis of the cells", "setting": "[4]; 100 uM arsenic for 2 hours, then washed and re-fed with normal medium, 24-hour period", "value": 28, "unit": "%"}
    ]}
  ]
}
